Test results taken from PubChem BioAssay (NCI).
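Cells were grown in 96-well plates and exposed to each compound for 48 hours at five concentrations; endpoints were interpolated linearly between bracketing concentrations, or set to the highest concentration if not reached. GI50: concentration for 50% inhibition of growth. TGI marks complete inhibition of growth.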

Experiments:
Experiment in all cases: NCI-60 cell line screen, 48 h
[1] = system: 786-0 renal
[2] = system: A498 renal
[3] = system: A549 NSCLC
[4] = system: ACHN renal
[5] = system: BT-549 breast
[6] = system: CAKI-1 renal
[7] = system: CCRF-CEM leukemia
[8] = system: COLO 205 colon
[9] = system: DU-145 prostate
[10] = system: EKVX NSCLC
[11] = system: HCC-2998 colon
[12] = system: HCT-116 colon
[13] = system: HCT-15 colon
[14] = system: HL-60(TB) leukemia
[15] = system: HOP-62 NSCLC
[16] = system: HOP-92 NSCLC
[17] = system: HS 578T breast
[18] = system: HT29 colon
[19] = system: IGROV1 ovarian
[20] = system: K-562 leukemia
[21] = system: KM12 colon
[22] = system: LOX IMVI melanoma
[23] = system: M14 melanoma
[24] = system: MALME-3M melanoma
[25] = system: MCF7 breast
[26] = system: MDA-MB-231 breast
[27] = system: MDA-MB-435
[28] = system: MDA-MB-468 breast
[29] = system: MOLT-4 leukemia
[30] = system: NCI-H226 lung
[31] = system: NCI-H23 lung
[32] = system: NCI-H522 lung
[33] = system: NCI/ADR-RES ovarian
[34] = system: OVCAR-3 ovarian
[35] = system: OVCAR-4 ovarian
[36] = system: OVCAR-5 ovarian
[37] = system: OVCAR-8 ovarian
[38] = system: PC-3 prostate
[39] = system: RPMI-8226 leukemia
[40] = system: RXF 393 renal
[41] = system: SF-268 CNS
[42] = system: SF-295 CNS
[43] = system: SF-539 CNS
[44] = system: SK-MEL-2 melanoma
[45] = system: SK-MEL-28 melanoma
[46] = system: SK-MEL-5 melanoma
[47] = system: SK-OV-3 ovarian
[48] = system: SN12C renal
[49] = system: SNB-19 CNS
[50] = system: SNB-75 CNS
[51] = system: SR leukemia
[52] = system: SW-620 colon
[53] = system: T-47D breast
[54] = system: TK-10 renal
[55] = system: U251 CNS
[56] = system: UACC-257 melanoma
[57] = system: UACC-62 melanoma
[58] = system: UO-31 renal

Question: What does the source list for O=C(NN1C(=O)/C(=C/C=C/c2ccc([N+](=O)[O-])o2)SC1=S)c1ccccc1O?
Answer: GI50 [1]: 1.11 µM; TGI [1]: 2.33 µM; GI50 [2]: 18.3 µM; TGI [2]: 32.6 µM; GI50 [3]: 2.98 µM; TGI [3]: 10.5 µM; GI50 [4]: 1.46 µM; TGI [4]: 2.78 µM; GI50 [5]: 0.673 µM; TGI [5]: 1.8 µM; GI50 [6]: 1.33 µM; TGI [6]: 2.67 µM; GI50 [7]: 0.318 µM; TGI [7]: 1.49 µM; GI50 [8]: 0.957 µM; TGI [8]: 2.28 µM; GI50 [9]: 1.59 µM; TGI [9]: 3.02 µM; GI50 [10]: 1.37 µM; TGI [10]: 2.75 µM; GI50 [11]: 1.37 µM; TGI [11]: 2.7 µM; GI50 [12]: 0.197 µM; TGI [12]: 0.395 µM; GI50 [13]: 0.149 µM; TGI [13]: 0.34 µM; GI50 [14]: 1.73 µM; TGI [14]: 9.47 µM; GI50 [15]: 1.62 µM; TGI [15]: 3.11 µM; GI50 [16]: 1.68 µM; TGI [16]: 4.13 µM; GI50 [17]: 2.1 µM; TGI [17]: 7.47 µM; GI50 [18]: 1 µM; TGI [18]: 2.78 µM; GI50 [19]: 1.23 µM; TGI [19]: 2.48 µM; GI50 [20]: 0.276 µM; TGI [20]: > 33.3 µM; GI50 [21]: 1.62 µM; TGI [21]: 3.77 µM; GI50 [22]: 0.194 µM; TGI [22]: 0.402 µM; GI50 [23]: 0.298 µM; TGI [23]: 0.873 µM; GI50 [24]: 0.223 µM; TGI [24]: 0.507 µM; GI50 [25]: 0.432 µM; TGI [25]: 2.02 µM; GI50 [26]: 0.257 µM; TGI [26]: 0.613 µM; GI50 [27]: 0.371 µM; TGI [27]: 1.38 µM; GI50 [28]: 1.4 µM; TGI [28]: 3.07 µM; GI50 [29]: 0.39 µM; TGI [29]: 7.56 µM; GI50 [30]: 1.11 µM; TGI [30]: 2.69 µM; GI50 [31]: 0.846 µM; TGI [31]: 2.17 µM; GI50 [32]: 0.262 µM; TGI [32]: 0.749 µM; GI50 [33]: 1.78 µM; TGI [33]: 5.75 µM; GI50 [34]: 1.23 µM; TGI [34]: 2.54 µM; GI50 [35]: 1.72 µM; TGI [35]: 3.72 µM; GI50 [36]: 1.84 µM; TGI [36]: 3.3 µM; GI50 [37]: 0.366 µM; TGI [37]: 1.6 µM; GI50 [38]: 1.92 µM; TGI [38]: 4.94 µM; GI50 [39]: 0.379 µM; TGI [39]: 2.53 µM; GI50 [40]: 1.42 µM; TGI [40]: 2.76 µM; GI50 [41]: 1.8 µM; TGI [41]: 4.2 µM; GI50 [42]: 1.79 µM; TGI [42]: 3.42 µM; GI50 [43]: 1.31 µM; TGI [43]: 2.67 µM; GI50 [44]: 0.663 µM; TGI [44]: 2.06 µM; GI50 [45]: 1.68 µM; TGI [45]: 3.13 µM; GI50 [46]: 0.771 µM; TGI [46]: 2.03 µM; GI50 [47]: 2.26 µM; TGI [47]: 5.28 µM; GI50 [48]: 0.237 µM; TGI [48]: 0.714 µM; GI50 [49]: 1.76 µM; TGI [49]: 3.34 µM; GI50 [50]: 1.29 µM; TGI [50]: 5.84 µM; GI50 [51]: 0.221 µM; TGI [51]: > 100 µM; GI50 [52]: 0.196 µM; TGI [52]: 0.426 µM; GI50 [53]: 1.63 µM; TGI [53]: 3.23 µM; GI50 [54]: 1.96 µM; TGI [54]: 4.19 µM; GI50 [55]: 1.27 µM; TGI [55]: 2.62 µM; GI50 [56]: 1.72 µM; TGI [56]: 3.6 µM; GI50 [57]: 0.675 µM; TGI [57]: 1.9 µM; GI50 [58]: 1.24 µM; TGI [58]: 2.49 µM
